# Assay results from patent US20250213701A1, “MEDICAMENT FOR TREATING HUMAN TUMOR BASED ON ERF3A-TARGETING PROTEOLYSIS MECHANISM” (SUZHOU DEGEN BIO-MEDICAL CO., LTD., priority 2022, published 2025).
# Tests used:
# SRD5A1 = target: T1, SRD5A1 (Homo sapiens, UniProt P18405); test: Western blot assay in 22Rv1 cells: SRD5A1; type: cell-based; settings: different concentrations at 24 h, and 3 nM at different time points (FIGS. 7 and 8)
# T1 construct: The downregulation of SRD5A1, SRD5A3, AR, ARV7, GSPT1 proteins in 22Rv1 cells by C59; endogenous in cells; host or cells: 22Rv1
# T1 sequence (P18405 whole entry): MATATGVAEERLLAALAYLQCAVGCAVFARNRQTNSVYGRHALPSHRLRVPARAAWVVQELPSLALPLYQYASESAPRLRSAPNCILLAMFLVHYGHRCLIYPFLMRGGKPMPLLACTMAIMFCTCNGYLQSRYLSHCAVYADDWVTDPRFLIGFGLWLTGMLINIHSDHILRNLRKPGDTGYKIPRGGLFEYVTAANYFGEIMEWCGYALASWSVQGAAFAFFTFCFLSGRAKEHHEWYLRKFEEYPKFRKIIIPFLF
# Source text: (§1) Example 84: Western Blot Assay of Compound C59 in 22Rv1, PC-3, and HepG2 Cells
# (§2) (1) Materials: 22Rv1, PC-3, and HepG2 cell, anti-SRD5A1 antibody (ab167606), anti-SRD5A2 antibody (ab124877), anti-SRD5A3 antibody (PA5-107029), anti-androgen receptor (AR) antibody (CST, No. 5153), anti-GSPT1 antibody (Abcam, ab234433), anti-GADPH antibody (CST, No. 5174), anti-c-Myc antibody (CST, No. 8583), anti-α-tublin antibody (CST, No. 2125), anti-rabbit IgG, HRP-linked antibody (CST, No. 7074), electrophoresis device and membrane transfer device (LIUYI, BEIJING; DYCZ-24DN)
# (§3) Cell seeding: 22Rv1 (Cell Bank of the Chinese Academy of Sciences, TCHu100), PC-3 (Cell Bank of the Chinese Academy of Sciences, SCSP-532) and HepG2 cells (Cell Bank of the Chinese Academy of Sciences, TCHu72) were subcultured and trypsinized to prepare 6×10^5 cells/mL suspensions, seeded on 6-well plates (3 mL/well), and cultured overnight in a cell incubator at 5% CO2 and 37° C. […]
# (§4) Protein quantification: The protein was quantified using a BCA protein quantification kit. […]
# (§5) Western immunoblot assay (or Western blot, WB): SDS-PAGE gel at a proper concentration was prepared according to the molecular weight of the target protein: for example, the concentration of the separation gel was 8% and the concentration of the stacking gel was 5%. The loading volume was adjusted according to the protein quantification results. […]
# ARV7 = test: Western blot assay in 22Rv1 cells: ARV7; type: cell-based, human; settings: different concentrations at 24 h, and 3 nM at different time points (FIGS. 7 and 8)
# Source text: as §1, §2, §3, §4, §5
# OVCAR-3 cells = test: Anti-proliferative toxicity of C63 in tumor cell lines (CCK8): OVCAR-3; type: cell-based; settings: Homo sapiens, 72 h, 3 days, read-out: Inhibition rate
# Description: (§6) Example 83: Detection of Anti-Proliferative Toxicity of C63 in Some Tumor Cell Lines
# OVCAR-3 cells (purchased from the Cell Bank of the Chinese Academy of Sciences, Cat. No. TCHu228) were subcultured in a culture medium (RPMI-1640 medium+1% penicillin-streptomycin dual-antibiotic solution++20% fetal bovine serum+0.01 mg/mL recombinant human insulin) in an incubator at 5% carbon dioxide and 37° C.
# OVCAR-3 cells were seeded at 2000 cells/well (90 μL) on a 96-well plate and cultured for 24 h.
# (§7) 10 mM compound stock solutions were prepared in DMSO.
# (§8) The compound stock solution was diluted with DMSO to give DMSO solutions 1-9 at concentrations of 0 μM, 2500 μM, 500 μM, 100 μM, 20 μM, 4 μM, 0.8 μM, 0.16 μM, and 0.032 μM.
# (§9) 2 μL of each of solutions 1-9 was added to 98 μL of the medium to give mixed solutions 11-19 of the compound and the medium.
# (§10) 10 μL of each of solutions 11-19 was added to the above cell seed solution to give a total volume of 100 μL (90 μL+10 μL).
# (§11) The concentrations of the compound in the wells were 0 μM, 5.0 μM, 1.0 μM, 0.2 μM, 0.04 μM, 0.008 μM, 0.0016 μM, 0.00032 μM, and 0.000064 μM. All concentrations were in triplicate.
# (§12) After the above-treated cells were cultured for 3 days, 10 μL of the CCK8 solution (DOJINDO, Cat. No. PF725) was added to each well. The plate was incubated in an incubator at 37° C. for 1-4 h and then detected on a microplate reader for the reading at 450 nm.
# PANC-1 cells = test: Anti-proliferative toxicity of C63 in tumor cell lines (CCK8): PANC-1; type: cell-based; settings: Homo sapiens, 72 h, 3 days, read-out: Inhibition rate
# Description: as §6
# PANC-1 cells (purchased from the Cell Bank of the Chinese Academy of Sciences, Cat. No. SCSP-535) were subcultured in a culture medium (DMEM medium+1% penicillin-streptomycin dual-antibiotic solution+10% fetal bovine serum) in an incubator at 5% carbon dioxide and 37° C.
# PANC-1 cells were seeded at 5000 cells/well (90 μL) on a 96-well plate and cultured for 24 h.
# as §7, §8, §9, §10, §11, §12
SMILES,downregulation of SRD5A1 protein (Western blot) (SRD5A1),downregulation of ARV7 protein (Western blot) (ARV7),inhibition at 64 pM (OVCAR-3 cells; 0.000064 μM),inhibition at 0.00032 µM (OVCAR-3 cells; 0.000320 μM),inhibition at 0.0016 µM (OVCAR-3 cells; 0.001600 μM),inhibition at 0.008 µM (OVCAR-3 cells; 0.008000 μM),inhibition at 0.04 µM (OVCAR-3 cells; 0.040000 μM),inhibition at 0.2 µM (OVCAR-3 cells; 0.200000 μM),inhibition at 1 µM (OVCAR-3 cells; 1.000000 μM),inhibition at 5 µM (OVCAR-3 cells; 5.000000 μM),inhibition at 64 pM (PANC-1 cells; 0.000064 μM),inhibition at 0.00032 µM (PANC-1 cells; 0.000320 μM),inhibition at 0.0016 µM (PANC-1 cells; 0.001600 μM),inhibition at 0.008 µM (PANC-1 cells; 0.008000 μM),inhibition at 0.04 µM (PANC-1 cells; 0.040000 μM),inhibition at 0.2 µM (PANC-1 cells; 0.200000 μM),inhibition at 1 µM (PANC-1 cells; 1.000000 μM),inhibition at 5 µM (PANC-1 cells; 5.000000 μM)
"C[C@]12C=CC(=O)N[C@@H]1CC[C@@H]1[C@@H]2CC[C@]2(C)[C@@H](C(=O)Nc3cccc(N[C@@H]4CCC[C@@H](Nc5cccc6c5C(=O)N(C5CCC(=O)NC5=O)C6=O)C4)c3)CC[C@@H]12 (stereo partly drawn) [C59, N-(3-(N—(N-(4-(2-(3-(2,6-dioxopiperidine))-isoindole-1,3-dione))-1R,3R-cyclohexanediamine))phenyl)-3-oxo-4-aza-5α-androst-1-ene-17β-carboxamide]",downregulation,downregulation,,,,,,,,,,,,,,,,
"C[C@]12C=CC(=O)N[C@@H]1CC[C@@H]1[C@@H]2CC[C@]2(C)[C@@H](C(=O)Nc3cccc(N[C@@H]4CCC[C@@H](Nc5cccc6c5C(=O)N([C@H]5CCC(=O)NC5=O)C6=O)C4)c3)CC[C@@H]12 [C63, N-(3-(N—(N-(4-(2-(3S-(2,6-dioxopiperidine))-isoindole-1,3-dione))-1R,3R-cyclohexanediamine))phenyl)-3-oxo-4-aza-5α-androst-1-ene-17β-carboxamide]",,,17.9%,16.4%,42.6%,61.4%,74.4%,80%,83.7%,85%,21.2%,12.8%,25.3%,31.6%,36.3%,42.1%,48.7%,52.8%
